Reference: patent publication US8722923B2, “Conjugates for treating neurodegenerative diseases and disorders” (Ramot at Tel-Aviv University Ltd., priority 2008, dated 2014)
“Also recorded” adds a separate entry of the source. Structures can show the parent of a compound that is named as a salt. One block for each compound: values may come before it.

Columns and labels:
MPTP acute model mice [1] = assay: Experiment 1: open field test, MPTP acute model (AN-490); type: in vivo, C57/BL/6J mice; details: for motility / motor activity in open field: MPTP treated mice, L-DOPA 25 mg/kg or AN-490 67.5 mg/kg by oral gavage, days 3, 6, 8, 16
Procedure: The MPTP neurotoxin was administered on day 0, with 4 IP injections (each injection contained 20 mg/kg, 5 ml/kg) in saline. The various treatments or saline were administered on days 0, 1, 2, 3, 6, 7, 13 and 16. Each group of mice (n=6) was subjected, on days 3, 6, 8 and 16, to the open field test, and the following parameters were scored: the distance moved (FIGS. 2A and 2B), velocity (FIGS. 2C and 2D), time spent immobile (FIGS. 2E and 2F) and time spent in a high level of mobility (FIGS. 2G and 2H; strong mobility) during a period of 20 minutes. FIGS. 2A, 2C, 2E and 2G present the data obtained for the control mice, mice treated with L-DOPA and mice treated with AN-490. FIGS. 2B, 2D, 2F and 2H present the data obtained for control mice or mice treated with MPTP, MPTP with L-DOPA and MPTP with AN-490.
Acute model: On day 1, C57/BL mice received 4× […] injections of 20 mg/kg MPTP-HCl (Sigma), dissolved in saline solution, at 2 hours intervals.
The open field test measures behavioral responses, locomotor activity, hyperactivity, and exploratory behaviors. Open field test is also used as a measure of anxiety. Mice tend to avoid brightly illuminated, novel, open spaces, so the open field environment acts as an anxiogenic stimulus and allows for measurement of anxiety-induced locomotor activity and exploratory behaviors. The apparatus for the open field test is a square (0.5×0.5 meter) made of white melamine. All activities were recorded by a video camera mounted above the open field and scored in real-time by a motion-recognition software package (Noldus, Holland) that detects and analyzes the movements of the animals. The video image of the open field arena was partitioned into equal-size squares zone. Total distance, average speed, rearing/elongation behavior, and time spent in various parts of the field (e.g. the border areas vs. mid-area) were measured. Testing was carried out in a temperature, noise and light controlled room.

[2] = tested on: MPTP sub-acute model mice; assay: Experiment 2: observed vitality signs (level of motion, fur appearance), MPTP sub-acute model; type: in vivo, C57/BL/6J mice; on Fur, observer 1: key: Split fur +; Shiny fur +++; on Fur, observer 2: key: Split fur +; Shiny fur +++; on Fur, observer 3: key: Split fur +; Shiny fur +++; on Fur, observer 4: key: Split fur +; Shiny fur +++; on Vitality, observer 1: key: slow motions +; normal motion +++; on Vitality, observer 2: key: slow motions +; normal motion +++; on Vitality, observer 3: key: slow motions +; normal motion +++; on Vitality, observer 4: key: slow motions +; normal motion +++
From the text: FIG. […] 6 hereinabove. Six independent observers estimated the level of mice vitality by the level of motion of the mice (light purple, marked vitality) and fur appearance (dark purple). The results are an average of the observers' reports.

[3] = Hygroscopicity of acid addition salts; type: physicochemical; details: acid addition salts as isolated
From the text: The hydrochloride salts of Compounds 6, 8a, 11, 13, 14, 16, 18 and 21 were identified as hygroscopic. […] The basis for this assumption was that the addition salt of an aromatic acid would be less hygroscopic than that of the corresponding hydrochloric acid addition salt. Thus, the butyl ester, Compound 20 was Boc-deprotected with 3 equivalents of benzenesulfonic acid in […].

[4] = tested on: MPTP sub-acute model mice; assay: Experiment 2: tyrosine hydroxylase immunostaining of striatum and substantia nigra, MPTP sub-acute model; type: in vivo, C57/BL/6J mice; details: GABA 18.4 mg/kg, L-DOPA 30 mg/kg + GABA 18.4 mg/kg, AN-490 81 mg/kg per os, days 29-30
Procedure: Shown are microphotograph of the striatum and substantia-nigra of mice receiving saline (FIG. 8A, Naive), MPTP+saline (FIG. 8B, MPTP) MPTP+GABA.HCl 18.4 mg/kg (FIG. 8C, MPTP+GABA), MPTP+L-DOPA 30 mg/kg (FIG. 8D, MPTP+DOPA), MPTP+L-DOPA 30 mg/kg+GABA 18.4 mg/kg (FIG. 8E, MPTP+Dopa+GABA) and MPTP+AN-490 81 mg/kg (FIG. 8F, MPTP+AN490). Paraffin-embedded horizontal sections of the stratium and substantia nigra were stained with hematoxylan and Tyrosine Hyroxylase antibodies. The magnification is ×100 and in the insert ×200.
Animals under deep anesthesia were perfused through the aorta with phosphate-buffered saline (PBS), followed by a cold fixative consisting of 4% paraformaldehyde, 0.35% glutaraldehyde and 0.2% picric acid in phosphate buffer. After perfusion, the brain were removed and fixed in 4% paraformaldehyde for 24 hours, washed with PBS, dehydrated in increasing alcohol concentrations and embedded in paraffin. Paraffin-embedded tissues were processed as described [Rephaeli et al. Int J Cancer. 2005 Aug. 20; 116:226-35]. The avidin-biotin nonspecific binding was prevented by a blocking kit according to the manufacturer's protocol (Vector, USA). The sections were further incubated at 4° C. overnight with the primary antibody mouse monoclonal tyrosine hydroxylase (Visionbiosystem, Newcastle, UK, diluted 1:50). The secondary antibody was biotin conjugated goat anti-mouse IgG (Santa Cruz). Slides were then stained with ABC peroxidase system, developed with diaminobenzidine (DAB), chromogene substrate (Vector Laboratories, Inc. The slides were examined using an Olympus BX52 light microscope and images were taken with Olympus DP50 digital camera system. Images were analyzed by the ImagePro Plus 5.1 software. At least 12 different fields in each experimental group were analyzed. The Mean density±SEM was calculated for the striatum and the mean cell number±SEM was calculated for the SN.

MPTP acute model mice [5] = assay: Experiment 3: tyrosine hydroxylase immunohistochemistry of striatum and substantia nigra, MPTP acute model; type: in vivo, C57/BL/6J mice; details: overall conclusion
Procedure: FIG. 13 presents a bar graph showing the effect of BL-1023* administration on the neuronal density in the stratium, as assessed from Tyrosine Hydroxylase staining. Mice were administered the following treatments: saline (control), MPTP+saline (MPTP), MPTP+L-DOPA 30 mg/kg (MPTP+L-DOPA), MPTP+L-DOPA 30 mg/kg+GABA 18.4 mg/kg (MPTP+L-DOPA+GABA), MPTP+BL1023* 48.4 mg/kg (denoted MPTP+1023 30) and MPTP+BL-1023* 24.2 mg/kg (denoted MPTP+BL1023 15). The MPTP neurotoxin was administered on day 0, with 4 IP injections (each injection contained 20 mg/kg, 5 ml/kg) in saline. The various treatments or saline were administered on day 7, 9, 11 and 13 (total of 4 treatments). Three mice, from each treatment group, and four mice from the control group, were sacrificed on day 15 and subjected to immunohystochemistry for tyrosine hydroxylase of the stratium according to the protocol described in the Examples section hereinbelow. The intensity of Tyrosine Hyroxylase (TH) staining, in the striatum of the treated mice is presented as the average of Intensity Optical Density (IOD) and SE obtained for the total stained area.
FIG. 15 presents a bar graph showing the effect of BL-1023* administration on the neuronal density in the substantia nigra, as assessed from Tyrosine Hydroxylase staining. […]

[6] = compared with other esters such as the ethyl or octyl esters; cited from earlier work
[7] = listed as Compound 21, tri-hydrochloride
[8] = MPTP+AN-490 67.5 mg/kg, compared to the other tested groups
[9] = MPTP sub-acute model, per os treatment

Compound: CCCCOC(=O)C(Cc1ccc(O)c(O)c1)NC(=O)CCCN (stereo not shown) (as salt: hydrochloride) [BL-1023*, Butyl-2-(4-Aminobutanamide)-3-(3,4-dihydroxyphenyl)propanoate hydrochloride]
melting point: 77 °C

Compound: COC(=O)[C@@H](N)Cc1ccc(O)c(O)c1.Cl [Compound 6, L-DOPA methyl ester hydrochloride]
hygroscopicity [3]: hygroscopic

Compound: COC(=O)C(Cc1ccc(O)c(O)c1)NC(=O)CCCN.Cl (stereo not shown) [Compound 8a, methyl-2-(4-aminobutanamide)-3-(3,4-dihydroxyphenyl)propanoate hydrochloride]
hygroscopicity [3]: hygroscopic

Compound: COC(=O)C(N)Cc1ccc(OC(=O)CCCN)c(OC(=O)CCCN)c1.Cl (stereo not shown) [Compound 11, methyl-2-amino-3-(3,4-phenyl-di-[4-aminobutanoate])propanoate-trihydrochloride]
melting point: 185 °C | hygroscopicity [3]: hygroscopic

Compound: CCCCOC(=O)C(N)Cc1ccc(O)c(O)c1.Cl (stereo not shown) [Compound 14, Butyl-2-amino-3-(3,4-dihydroxyphenyl)propanoate hydrochloride]
hygroscopicity [3]: hygroscopic

Compound: NCCCC(=O)O [GABA, 4-amino-butyric acid]
Fur, observer 1 [2, 9]: +++ | Fur, observer 3 [2, 9]: +++ | Fur, observer 4 [2, 9]: +++ | Vitality, observer 1 [2, 9]: +++ | Vitality, observer 2 [2, 9]: +++ | Vitality, observer 3 [2, 9]: +++ | Vitality, observer 4 [2, 9]: +++ | TH staining in the substantia nigra and striatum (IHC) [4]: protection or restoration of the normal morphology | protection of TH positive cells (MPTP acute model mice [5]): protect the TH positive cells

Compound: CCCCOC(=O)[C@@H](N)Cc1ccc(O)c(O)c1 [L-DOPA butyl ester]
skin permeability [6]: better skin permeability

Compound: Butyl-2-amino-3-(3,4-phenyl-di[4-aminobutanoate])propanoate tri-benzenesulfonate salt [Compound 22]
hygroscopicity [3]: much less hygroscopic

Continued, in another order:

melting point: 175 to 176 °C
Compound: CCCCOC(=O)[C@@H](N)Cc1ccc(OC(=O)CCCN)c(OC(=O)CCCN)c1 (as salt: hydrochloride) [AN-490, Butyl-2-amino-3-(3,4-phenyl-di[4-aminobutanoate])propanoate tri-hydrochloride]

melting point: 74 to 75 °C
Compound: CCCCOC(=O)C(Cc1ccc(OC(=O)CCCN)c(OC(=O)CCCN)c1)NC(=O)CCCN (stereo not shown) (as salt: hydrochloride) [Compound 18]

Fur, observer 1 [2, 9]: + | Fur, observer 2 [2, 9]: + | Vitality, observer 1 [2, 9]: +++ | Vitality, observer 2 [2, 9]: +++ | Vitality, observer 3 [2, 9]: +++ | Vitality, observer 4 [2, 9]: +++ | vitality signs (fur appearance) ([2]; MPTP+AN-490 81 mg/kg per os): reduced vitality signs | hygroscopicity [3]: hygroscopic
Compound: CCCCOC(=O)[C@@H](N)Cc1ccc(OC(=O)CCCN)c(OC(=O)CCCN)c1 [AN-490, Butyl-2-amino-3-(3,4-phenyl-di[4-aminobutanoate])propanoate tri-hydrochloride]
motility / motor activity in open field (MPTP acute model mice [1]; [7]): significant increase in motility | motility / motor activity in open field (MPTP acute model mice [1]; tri-hydrochloride): continuous increase in motor activity | strong mobility in open field (MPTP acute model mice [1]; [8]): highly mobile | time spent immobile in open field (MPTP acute model mice [1]; [8]): immobile for a short time | velocity in open field (MPTP acute model mice [1]; [8]): highest velocity | TH staining in the substantia nigra and striatum (IHC) [4, 7]: enhanced neuronal density | TH staining in the substantia nigra and striatum (IHC) ([4]; tri-hydrochloride): protection or restoration of the normal morphology; also recorded: TH protective activity

melting point: 87 °C | hygroscopicity [3]: hygroscopic
Compound: COC(=O)C(Cc1ccc(OC(=O)CCCN)c(OC(=O)CCCN)c1)NC(=O)CCCN.Cl (stereo not shown) [Compound 13]

hygroscopicity [3]: hygroscopic
Compound: CCCCOC(=O)C(Cc1ccc(OC(=O)CCCN)c(OC(=O)CCCN)c1)NC(=O)CCCN (stereo not shown) [Compound 18]
